# Tests used:
# HeLa = assay: Anticancer activity against human HeLa cells assessed as inhibition of cell proliferation measured after 48 hrs by MTT assay; format: functional, cell-based
# HepG2 = assay: Anticancer activity against human HepG2 cells assessed as inhibition of cell proliferation measured after 48 hrs by MTT assay; format: functional, cell-based; details: HepG2, 48 h
# MRC5 = assay: Cytotoxicity against human MRC5 cells assessed as inhibition of cell proliferation measured after 48 hrs by MTT assay; format: cell-based; details: MRC5, 48 h
# L02 = assay: Cytotoxicity against human HL7702 cells assessed as inhibition of cell proliferation measured after 48 hrs by MTT assay; format: cell-based; details: L02, 48 h
# A549 = assay: Anticancer activity against human A549 cells assessed as inhibition of cell proliferation measured after 48 hrs by MTT assay; format: functional, cell-based; details: A549, 48 h
# HMEC = assay: Cytotoxicity against human HMEC cells assessed as inhibition of cell proliferation measured after 48 hrs by MTT assay; format: cell-based
# [1] = Cytotoxicity against human H8 cells assessed as inhibition of cell proliferation measured after 48 hrs by MTT assay; format: cell-based
# MCF7 = assay: Anticancer activity against human MCF7 cells assessed as inhibition of cell proliferation measured after 48 hrs by MTT assay; format: functional, cell-based; details: MCF7, 48 h
SMILES,IC50 (HeLa) [nM],IC50 (HepG2) [nM],IC50 (MRC5) [µM],IC50 (L02) [µM],IC50 (A549) [µM],IC50 (HMEC) [µM],IC50 [1] [µM],IC50 (MCF7) [µM]
COc1cc([C@@H]2c3cc4c(cc3[C@@H](O[C@@H]3O[C@@H]5CO[C@@H](c6cccs6)O[C@H]5[C@H](O)[C@H]3NC(=O)CSc3nc5cc(F)ccc5s3)[C@H]3COC(=O)[C@H]23)OCO4)cc(OC)c1O,134000,120000,123,156,122,160,140,142
COc1cc([C@@H]2c3cc4c(cc3[C@@H](O[C@@H]3O[C@@H]5CO[C@@H](c6cccs6)O[C@H]5[C@H](O)[C@H]3OC(=O)CSc3nc5cc(F)ccc5o3)[C@H]3COC(=O)[C@H]23)OCO4)cc(OC)c1O,1000,1700,15.8,17.3,2.7,14.3,21.3,4
COc1cc([C@@H]2c3cc4c(cc3[C@@H](O[C@@H]3O[C@@H]5CO[C@@H](c6cccs6)O[C@H]5[C@H](O)[C@H]3OC(=O)CSc3nc5cc(F)ccc5s3)[C@H]3COC(=O)[C@H]23)OCO4)cc(OC)c1O,1500,2000,12.4,18.5,1.1,13.5,22.5,3.9
COc1cc([C@@H]2c3cc4c(cc3[C@@H](O[C@@H]3O[C@@H]5CO[C@@H](c6cccs6)O[C@H]5[C@H](OC(=O)CSc5nc6cc(F)ccc6o5)[C@H]3O)[C@H]3COC(=O)[C@H]23)OCO4)cc(OC)c1O,2000,2100,14.9,16.1,4.8,14.2,15.9,4.6
COc1cc([C@@H]2c3cc4c(cc3[C@@H](O[C@@H]3O[C@@H]5CO[C@@H](c6cccs6)O[C@H]5[C@H](OC(=O)CSc5nc6cc(F)ccc6s5)[C@H]3O)[C@H]3COC(=O)[C@H]23)OCO4)cc(OC)c1O,2500,2700,14.3,16.4,3.5,14.3,17.4,5.6

# Reference: ChEMBL document CHEMBL4354856, “Discovery of 4,6-O-Thenylidene-β-d-glucopyranoside-(2″-acetamido, 3″-acetyl-di-S-5-fluorobenzothizole/5-fluorobenzoxazole)-4'-demethylepipodophyllotoxin as Potential Less Toxic Antitumor Candidate Drugs by Reducing DNA Damage and Less Inhibition of PI3K” (J Med Chem, 2020)
